Reference: patent US20160007606A1, “MICROBIOCIDAL PYRAZOLE DERIVATIVES” (SYNGENTA PARTICIPATIONS AG, priority 2012, published 2016)

Cc1cc(C(F)(F)F)nn1CC(=O)N1CCN(c2nc(C3=NOC(c4c(F)cccc4F)C3)cs2)CC1C(=O)O (stereo not shown)
melting point: 178 to 185 °C
